Measured values taken from patent US20230212131A1, “COLLAGEN 1 TRANSLATION INHIBITORS AND METHODS OF USE THEREOF” (Anima Biotech Inc., priority 2020, published 2023).

Test system: collagen 1 (COL1)
Assay: WI-38 collagen 1 inhibition assay
Type: cell-based, human
Conditions: Cellular EC50, WI-38 cells; values are classes of LogEC50
Outline: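 WI-38 fibroblasts serum-starved (0.25% FBS 2 h, then none 24 h), then given a collagen induction cocktail together with compound. Cells fixed, immunostained for collagen I with DAPI counterstain, and imaged at 20×; per-cell fluorescence quantified by image analysis.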

Row | SMILES | COL1 Efficacy (LogEC50)
1 | CC(=O)N1CCN(c2ccc(C(=O)Nc3nc(-c4ccccc4Cl)cs3)c(C)c2)CC1 [compound 473, 4-(4-acetylpiperazin-1-yl)-N-(4-(2-chlorophenyl)thiazol-2-yl)-2-methylbenzamide] | +++ (+++: <−6)
2 | O=C(Nc1nc(-c2cc(Cl)sc2Cl)cs1)c1ccccc1 [compound 312] | ++ (++: −5 to −6)
3 | N#Cc1ccccc1-c1csc(NC(=O)c2ccc(N3CCOCC3)cc2)n1 [compound 361, N-[4-(2-cyanophenyl)thiazol-2-yl]-4-morpholino-benzamide] | − (−: inactive)
4 | CN(C(=O)c1ccc(N2CCOCC2)cn1)c1nc(-c2ccccc2Cl)cs1 [Compound 400, N-(4-(2-chlorophenyl)thiazol-2-yl)-N-methyl-5-morpholinopicolinamide] | ++ (++: −5 to −6)
5 | O=C(Nc1nc(-c2ccccc2Cl)cs1)c1ccc(N2CCCC2)cn1 [compound 481, N-(4-(2-chlorophenyl)thiazol-2-yl)-5-(pyrrolidin-1-yl)picolinamide] | +++ (+++: <−6)
6 | O=C(Nc1nc(-c2ccccc2Cl)cs1)c1ccc(N2CCC[C@@H](O)C2)cn1 [compound 487, (R)—N-(4-(2-chlorophenyl)thiazol-2-yl)-5-(3-hydroxypiperidin-1-yl)picolinamide] | +++ (+++: <−6)
7 | CS(=O)(=O)N1CCN([C@H]2C[C@@H](C(=O)Nc3nc(-c4ccccc4Cl)cs3)C2)CC1 [compound 423] | − (−: inactive)
8 | COc1ccc(C(=O)Nc2nc(-c3ccc(Cl)cc3Cl)cs2)cc1 [Compound 300, N-(4-(2,4-dichlorophenyl)thiazol-2-yl)-4-methoxybenzamide] | ++ (++: −5 to −6)
9 | O=C(Nc1nc(-c2ccc(Cl)cc2Cl)cs1)c1ccc(Cl)cc1 [Compound 303, 4-chloro-N-(4-(2,4-dichlorophenyl)thiazol-2-yl)benzamide] | + (+: >−5)
10 | O=C(Nc1nc(-c2ccccc2Cl)cs1)c1ccc(C2CCS(=O)(=O)CC2)cc1 [compound 382, N-(4-(2-chlorophenyl)thiazol-2-yl)-4-(1,1-dioxidotetrahydro-2H-thiopyran-4-yl)benzamide] | +++ (+++: <−6)
11 | O=C(Nc1nc(-c2ccccc2Cl)cs1)N1CCC(N2CCOCC2)CC1 [compound 360, N-[4-(2-chlorophenyl)thiazol-2-yl]-4-morpholino-piperidine-1-carboxamide] | + (+: >−5)
12 | O=C(Nc1nc(-c2ccccc2Cl)cs1)c1ccc(C2CCS(=O)(=O)CC2)cn1 [Compound 383, N-(4-(2-chlorophenyl)thiazol-2-yl)-5-(1,1-dioxidotetrahydro-2H-thiopyran-4-yl)picolinamide] | +++ (+++: <−6)
13 | Cc1ccc(C(=O)Nc2nc(-c3cc(Cl)sc3Cl)cs2)cc1 [compound 313] | +++ (+++: <−6)
14 | COc1ccc(C(=O)Nc2nc(-c3cccnc3OC)cs2)cc1 [Compound 332, 4-methoxy-N-[4-(2-methoxy-3-pyridyl)thiazol-2-yl]benzamide] | ++ (++: −5 to −6)
15 | Cn1cc(-c2csc(NC(=O)c3ccc(N4CCOCC4)cc3)n2)cn1 [compound 354, N-[4-(1-methylpyrazol-4-yl)thiazol-2-yl]-4-morpholino-benzamide] | ++ (++: −5 to −6)
16 | CN(C(=O)c1ccc(N2CCOCC2)cc1)c1nc(-c2ccccc2Cl)cs1 [Compound 399, N-(4-(2-chlorophenyl)thiazol-2-yl)-N-methyl-4-morpholinobenzamide] | ++ (++: −5 to −6)
17 | Cc1ccc(C(=O)Nc2nc(-c3cncnc3)cs2)cn1 [Compound 340, 6-methyl-N-(4-pyrimidin-5-ylthiazol-2-yl)pyridine-3-carboxamide] | +++ (+++: <−6)

Row | SMILES | COL1 Efficacy (LogEC50)
18 | O=C(Nc1nc(-c2ccccc2Cl)cs1)c1ccc(N2CCOCC2)cc1F [compound 408] | − (−: inactive)
19 | O=C(Nc1nc(-c2ccccc2Cl)cs1)c1ccc(N2CCC[C@H](O)C2)cn1 [compound 488, (S)—N-(4-(2-chlorophenyl)thiazol-2-yl)-5-(3-hydroxypiperidin-1-yl)picolinamide] | +++ (+++: <−6)
20 | O=C(Nc1nc(-c2ccccc2Cl)cs1)c1ccc(N2CCOCC2)nc1 [compound 346, N-[4-(2-chlorophenyl)thiazol-2-yl]-6-morpholino-pyridine-3-carboxamide] | +++ (+++: <−6)
21 | CN1CCC[C@@H](C(=O)N2CCN(c3ccc(C(=O)Nc4nc(-c5ccccc5Cl)cs4)nc3)CC2)C1 [Compound 485, (R)—N-(4-(2-chlorophenyl)thiazol-2-yl)-5-(4-(1-methylpiperidine-3-carbonyl)piperazin-1-yl)picolinamide] | +++ (+++: <−6)
22 | CN(C)CCC(=O)N1CCN(c2ccc(C(=O)Nc3nc(-c4ccccc4Cl)cs3)nc2)CC1 [Compound 444, N-(4-(2-chlorophenyl)thiazol-2-yl)-5-(4-(3-(dimethylamino)propanoyl)piperazin-1-yl)picolinamide] | +++ (+++: <−6)
23 | COc1ncc(C(=O)Nc2nc(-c3cccnc3OC)cs2)cn1 [compound 356, 2-methoxy-N-[4-(2-methoxy-3-pyridyl)thiazol-2-yl]pyrimidine-5-carboxamide] | − (−: inactive)
24 | CN1CCN(c2ccc(C(=O)Nc3nc(-c4ccccc4Cl)cs3)cc2)CC1 [compound 322, N-[4-(2-chlorophenyl)thiazol-2-yl]-4-(4-methylpiperazin-1-yl)benzamide] | +++ (+++: <−6)
25 | COc1ccc(C(=O)Nc2nc(-c3cnccc3C)cs2)cc1 [Compound 333, 4-methoxy-N-[4-(4-methyl-3-pyridyl)thiazol-2-yl]benzamide] | ++ (++: −5 to −6)
26 | Cc1ncccc1-c1csc(NC(=O)c2ccc(N3CCOCC3)nn2)n1 [compound 373, N-[4-(2-methyl-3-pyridyl)thiazol-2-yl]-6-morpholino-pyridazine-3-carboxamide] | + (+: >−5)
27 | COc1ncccc1-c1csc(NC(=O)c2ccc(C)nc2)n1 [Compound 319, N-[4-(2-methoxy-3-pyridyl)thiazol-2-yl]-6-methyl-pyridine-3-carboxamide] | ++ (++: −5 to −6)
28 | CN1CCC[C@H](C(=O)N2CCN(c3ccc(C(=O)Nc4nc(-c5ccccc5Cl)cs4)nc3)CC2)C1 [Compound 486, (S)—N-(4-(2-chlorophenyl)thiazol-2-yl)-5-(4-(1-methylpiperidine-3-carbonyl)piperazin-1-yl)picolinamide] | +++ (+++: <−6)
29 | Cc1ncccc1-c1csc(NC(=O)c2cnc(N3CCOCC3)nc2)n1 [compound 374, N-[4-(2-methyl-3-pyridyl)thiazol-2-yl]-2-morpholino-pyrimidine-5-carboxamide] | + (+: >−5)
30 | COc1ncc(C(=O)Nc2nc(-c3cnccc3C)cs2)cn1 [compound 349, 2-methoxy-N-[4-(4-methyl-3-pyridyl)thiazol-2-yl]pyrimidine-5-carboxamide] | − (−: inactive)
31 | O=C(Nc1nc(-c2ccc(Cl)cc2Cl)cs1)C1CCOCC1 [Compound 306, N-(4-(2,4-dichlorophenyl)thiazol-2-yl)tetrahydro-2H-pyran-4-carboxamide] | ++ (++: −5 to −6)
32 | O=C(Nc1nc(-c2ccccc2Cl)cs1)c1ccc(N2CCN3CCCC3C2)cn1 (stereo not shown) [compound 461, N-(4-(2-chlorophenyl)thiazol-2-yl)-5-(hexahydropyrrolo[1,2-a]pyrazin-2(1H)-yl)picolinamide] | +++ (+++: <−6)
33 | O=C(Nc1nc(-c2ccccc2Cl)cs1)c1ccc(N2CCN(C(=O)CCO)CC2)cn1 [Compound 455, N-(4-(2-chlorophenyl)thiazol-2-yl)-5-(4-(3-hydroxypropanoyl)piperazin-1-yl)picolinamide] | +++ (+++: <−6)
34 | CN(C)C(=O)c1ccc(C(=O)Nc2nc(-c3ccccc3Cl)cs2)cc1 [compound 389, N′-(4-(2-chlorophenyl)thiazol-2-yl)-N,N-dimethylterephthalamide] | ++ (++: −5 to −6)
